Consider 20 compounds from US7713965B2, “7-substituted 3-carboxy-oxadiazino-quinolone derivatives, their preparation and their application as anti-bacterials” (Vetoquinol SA, priority 2008, dated 2010).

Compound `CO/N=C1\CCN(c2c(F)cc3c(=O)c(C(=O)O)cn4c3c2OCN4C)C1` (hydrate or solvate) returned a melting point of 241 to 243 °C.
Take `CC1Oc2c(N3CC[C@@H](Nc4nccs4)C3)ccc3c(=O)c(C(=O)O)cn(c23)N1C` (some centres unmarked) (hydrate or solvate): the melting point was in the range of 260 to 263 °C.
To `CN1COc2c(N3CC[C@@H](n4ccnn4)C3)c(F)cc3c(=O)c(C(=O)O)cn1c23` (hydrate or solvate) belongs 235 °C (dec.); to `CN1COc2c(N3CC[C@H](n4ccnn4)C3)c(F)cc3c(=O)c(C(=O)O)cn1c23` (hydrate or solvate), 235 °C (dec.); to `CN1n2cc(C(=O)O)c(=O)c3cc(F)c(N4CC[C@H](NC(=O)C(F)(F)F)C4)c(c32)OC1(C)C` (hydrate or solvate) [51], 217 to 219 °C.
To `CN1n2cc(C(=O)O)c(=O)c3cc(F)c(N4CC[C@H](NC(=O)C(F)(F)F)C4)c(c32)OC1(C)C` (hydrate or solvate) [53] belongs 283 °C.
With `CN1COc2c(N3CCC(CNc4cnccn4)C3)c(F)cc3c(=O)c(C(=O)O)cn1c23` (centres unmarked) (hydrate or solvate) [Example 1, 8-fluoro-3-methyl-6-oxo-9-[3-(pyrazin-2-ylaminomethyl)-pyrrolidin-1-yl]-2,3-dihydro-6H-1-oxa-3,3a-diaza-phenalene-5-carboxylic acid], the melting point is 238 to 240 °C.
In the case of `CN1COc2c(N3CCC(Nc4cnccn4)C3)c(F)cc3c(=O)c(C(=O)O)cn1c23` (centres unmarked) (hydrate or solvate) [Example 7], the melting point was 269 °C (dec.).
In turn, `CN1COc2c(N3CCC(Nc4ccccn4)C3)c(F)cc3c(=O)c(C(=O)O)cn1c23` (centres unmarked) (hydrate or solvate) [Example 8] came in with a melting point of 278 to 280 °C.
As for `CN1COc2c(N3CCC(Nc4nncs4)C3)c(F)cc3c(=O)c(C(=O)O)cn1c23` (centres unmarked) (hydrate or solvate) [Example 10, 8-Fluoro-3-methyl-6-oxo-9-[3-([1,3,4]thiadiazol-2-ylamino)-pyrrolidin-1-yl]-2,3-dihydro-6H1-oxa-3,3a-diaza-phenalene-5-carboxylic acid], the figure is 320 °C (dec.); as for `CN1COc2c(N3CC[C@H](Nc4nccs4)C3)c(F)cc3c(=O)c(C(=O)O)cn1c23` (hydrate or solvate) [Example 18, 8-Fluoro-3-methyl-6-oxo-9-[(S)-3-(thiazol-2-ylamino)-pyrrolidin-1-yl]-2,3dihydro-6H-1-oxa-3,3a-diaza-phenalene-5-carboxylic acid], 275 °C; as for `CN1COc2c(N3CC[C@@H](Nc4nccs4)C3)c(F)cc3c(=O)c(C(=O)O)cn1c23` (hydrate or solvate) [Example 19, 8-Fluoro-3-methyl-6-oxo-9-[(R)-3-(thiazol-2-ylamino)-pyrrolidin-1-yl]-2,3-dihydro-6H-1-oxa-3,3a-diaza-phenalene-5-carboxylic acid], 245 to 250 °C.
For `CN1COc2c(N3CCC(NC(=O)C(F)(F)F)C3)c(F)cc3c(=O)c(C(=O)O)cn1c23` (centres unmarked) (hydrate or solvate) [Example 27, 8-Fluoro-3-methyl-6-oxo-9-[3-(2,2,2-trifluoro-acetylamino)-pyrrolidin-1-yl]-2,3-dihydro-6H-1-oxa-3,3a-diaza-phenalene-5-carboxylic acid], the melting point is 281 to 283 °C.
As for `CN1COc2c(N3CC[C@H](NC(=O)C(F)(F)F)C3)c(F)cc3c(=O)c(C(=O)O)cn1c23` (hydrate or solvate) [Example 28, 8-Fluoro-3-methyl-6-oxo-9-[(S)-3-(2,2,2-trifluoro-acetylamino)-pyrrolidin-1-yl]-2,3-dihydro-6H-1-oxa-3,3a-diaza-phenalene-5-carboxylic acid], the figure is 273 to 275 °C.
As for `CN1COc2c(N3CC[C@@H](NC(=O)C(F)(F)F)C3)c(F)cc3c(=O)c(C(=O)O)cn1c23` (hydrate or solvate) [Example 29, 8-Fluoro-3-methyl-6-oxo-9-[(R)-3-(2,2,2-trifluoro-acetylamino)-pyrrolidin-1-yl]-2,3-dihydro-6H-1-oxa-3,3a-diaza-phenalene-5-carboxylic acid], the figure is 273 to 275 °C.
To `CN1COc2c(N3C[C@@H](N)C(C)(C)C3)c(F)cc3c(=O)c(C(=O)O)cn1c23` (hydrate or solvate) [Example 34, 9-((S)-4-Amino-3,3-dimethyl-pyrrolidin-1-yl)-8-fluoro-3-methyl-6-oxo-2,3-dihydro-6H-1-oxa-3,3a-diaza-phenalene-5-carboxylic acid] belongs 230 °C (dec.); to `CN1COc2c(N3C[C@H](N)C(C)(C)C3)c(F)cc3c(=O)c(C(=O)O)cn1c23` (hydrate or solvate) [Example 35, 9-((R)-4-Amino-3,3-dimethyl-pyrrolidin-1-yl)-8-fluoro-3-methyl-6-oxo-2,3-dihydro-6H-1-oxa-3,3a-diaza-phenalene-5-carboxylic acid], 222 °C (dec.); to `CN1COc2c(N3CCC(C(O)c4nccs4)C3)c(F)cc3c(=O)c(C(=O)O)cn1c23` (centres unmarked) (hydrate or solvate) [Example 38, 8-Fluoro-9-[3-(hydroxy-thiazol-2-yl-methyl)-pyrrolidin-1-yl]-3-methyl-6-oxo-2,3-dihydro-6H-1-oxa-3,3a-diaza-phenalene-5-carboxylic acid], 215 to 217 °C.
As to `CN1COc2c(N3CCC(C(N)c4nccs4)C3)c(F)cc3c(=O)c(C(=O)O)cn1c23` (centres unmarked) (hydrate or solvate) [Example 39, 9-[3-(Amino-thiazol-2-yl-methyl)-pyrrolidin-1-yl]-8-fluoro-3-methyl-6-oxo-2,3-dihydro-6H-1-oxa-3,3a-diaza-phenalene-5-carboxylic acid], the melting point fell in the range of 233 to 235 °C.
As for `CN1COc2c(N3CC(N)C(C)(C)C3)c(F)cc3c(=O)c(C(=O)O)cn1c23` (racemic) (hydrate or solvate) [Example 33, 9-((R,S)-4-Amino-3,3-dimethyl-pyrrolidin-1-yl)-8-fluoro-3-methyl-6-oxo-2,3-dihydro-6H-1-oxa-3,3a-diaza-phenalene-5-carboxylic acid], the figure is 237 °C (dec.).
